Tests used:
[1] = refractive index (Na D-line) (dimensionless); xn = mol fraction of the nth substance listed; settings: 101 kPa, Liquid, Standard Abbe refractometry
[2] = xn = mol fraction of the nth substance listed; settings: 101 kPa, Liquid; for speed of sound: Pulse-echo method

C1CCCC1 [cyclopentane] + Cc1ccc(C)cc1
Settings	mass density, [2] [kg/m3]	refractive index, [1]	speed of sound, [2] [m/s]
298.15 K, x1 = 0.0462	852.5	1.49015	1305
298.15 K, x1 = 0.0885	848.7	1.48707	1300
298.15 K, x1 = 0.1848	839.6	1.48001	1289
298.15 K, x1 = 0.2886	829.3	1.47236	1277
298.15 K, x1 = 0.3869	818.8	1.46445	1266
298.15 K, x1 = 0.4744	809	1.45737	1256
298.15 K, x1 = 0.5886	795.1	1.44669	1244
298.15 K, x1 = 0.6913	782.2	1.4372	1233
298.15 K, x1 = 0.7923	768.9	1.42618	1223
298.15 K, x1 = 0.8935	755	1.41575	1213
298.15 K, x1 = 0.9471	747.4	1.40916	1208
298.15 K, x1 = 1	740	1.40292	1204
313.15 K, x1 = 0.0443	839.7	1.48224	1243
313.15 K, x1 = 0.0981	834.8	1.47862	1236
313.15 K, x1 = 0.2012	824.7	1.47117	1224
313.15 K, x1 = 0.2998	814.5	1.46343	1211
313.15 K, x1 = 0.3542	808.5	1.4589	1204
313.15 K, x1 = 0.4799	794.3	1.44816	1189
313.15 K, x1 = 0.6021	779.4	1.43702	1173
313.15 K, x1 = 0.703	766.4	1.42761	1161
313.15 K, x1 = 0.8072	752.3	1.41693	1149
313.15 K, x1 = 0.909	737.9	1.4057	1138
313.15 K, x1 = 0.9601	730.6	1.39936	1133
313.15 K, x1 = 1	725	1.39456	1130

Source: the NIST ThermoML archive (doi:10.1021/je901020a)
